“And” between values parts separate entries of the source, which are not always exact repeats. Equal entries are not always repeated. Structures can show the parent of a compound that is named as a salt.
What was measured:
[1] = Stability study: decomposition of creatine salts to creatinine in water, LC-MS/MS; type: physicochemical; conditions: for Creatinine, % / Salt, %: distilled water, 20° C.; for decomposition: at first, time intervals of 8 hours, water; for Formation of creatinine: deionized water, room temperature, period of 333 hours
Method: Mobile phase was 50% water and 50% acetonitrile with 0.1% formic acid in each. Column was a 2 mm×15 cm C18 column with 3 um particles. Flow rate 0.2 mL/min.
Samples were dissolved in distilled water and kept at 20° C. Mass spectrometry used a Waters Premier XE triple quadrupole mass spectrometer. Liquid chromatography used a Waters Acquity UPLC system.
Experiment was double checked with two simultaneous injections of each sample in various time intervals.

[2] = isolated product

CN(CC(=O)O)C(=N)N.Cl [Salt 4, creatine hydrochloride]
Creatinine, % ([1]; 0 Hrs, hydrochloride): 1.8% and 1.7% | Salt, % ([1]; 0 Hrs, hydrochloride): 98.2% and 98.3% | Creatinine, % ([1]; 8 Hrs): 2.5% | Salt, % ([1]; 8 Hrs): 97.5% | Creatinine, % ([1]; 16 Hrs): 2.4% | Salt, % ([1]; 16 Hrs): 97.6% | Creatinine, % ([1]; 24 Hrs): 2.5% | Salt, % ([1]; 24 Hrs): 97.5% | Creatinine, % ([1]; 32 Hrs, hydrochloride): 2.4% and 2.5% | Salt, % ([1]; 32 Hrs, hydrochloride): 97.6% and 97.5% | Creatinine, % ([1]; 40 Hrs, hydrochloride): 2.4% and 2.5% | Salt, % ([1]; 40 Hrs, hydrochloride): 97.6% and 97.5% | Creatinine, % ([1]; 48 Hrs): 2.5% | Salt, % ([1]; 48 Hrs): 97.5% | Creatinine, % ([1]; 56 Hrs, hydrochloride): 2.5% and 2.4% | Salt, % ([1]; 56 Hrs, hydrochloride): 97.5% and 97.6% | Creatinine, % ([1]; 64 Hrs): 2.5% | Salt, % ([1]; 64 Hrs): 97.5% | Creatinine, % ([1]; 72 Hrs, hydrochloride): 2.5% and 2.6% | Salt, % ([1]; 72 Hrs, hydrochloride): 97.5% and 97.4% | Creatinine, % ([1]; 138 Hrs, hydrochloride): 3.0% and 2.8% | Salt, % ([1]; 138 Hrs, hydrochloride): 97.0% and 97.2% | Creatinine, % ([1]; 166 Hrs): 3.0% | Salt, % ([1]; 166 Hrs): 97.0% | Creatinine, % ([1]; 190 Hrs): 3.0% | Salt, % ([1]; 190 Hrs): 97.0% | Creatinine, % ([1]; 214 Hrs, hydrochloride): 3.1% and 3.3% | Salt, % ([1]; 214 Hrs, hydrochloride): 96.9% and 96.7% | Creatinine, % ([1]; 240 Hrs, hydrochloride): 3.0% and 3.3% | Salt, % ([1]; 240 Hrs, hydrochloride): 97.0% and 96.7% | Creatinine, % ([1]; 287 Hrs, hydrochloride): 3.2% and 3.5% | Salt, % ([1]; 287 Hrs, hydrochloride): 96.8% and 96.5% | Creatinine, % ([1]; 310 Hrs, hydrochloride): 3.3% and 3.6% | Salt, % ([1]; 310 Hrs, hydrochloride): 96.7% and 96.4% | Creatinine, % ([1]; 333 Hrs, hydrochloride): 3.6% and 3.5% | Salt, % ([1]; 333 Hrs, hydrochloride): 96.4% and 96.5% | decomposition [1]: < 2.5% | Formation of creatinine [1]: ≤ 3.6%

C[C@H](CCC(=O)NCCS(=O)(=O)O)[C@H]1CC[C@H]2[C@@H]3[C@H](O)C[C@@H]4C[C@H](O)CC[C@]4(C)[C@H]3C[C@H](O)[C@]12C [Salt 26, Amino((2-ethoxy-2-oxoethyl)(methyl)amino)methaniminium 2-((R)-4-((3R,5S, 7R, 8R,9S,10S,12S,13R,14S,17R)-3,7,12-trihydroxy-10,13-dimethylhexadecahydro-1H-cyclopenta[a]phenanthren-17-yl)pentanamido)ethane-1-sulfonate]
solubility in organic solvents and water [2]: readily soluble

Amino((carboxymethyl)(methyl)amino)methaniminium 6-methyl-4-oxo-4H-1,2,3-oxathiazin-3-ide 2,2-dioxide [Salt 21a]
Creatinine, % ([1]; 0 Hrs): 0.4% | Salt, % ([1]; 0 Hrs): 99.6% | Creatinine, % ([1]; 8 Hrs): 0.4% | Salt, % ([1]; 8 Hrs): 99.6% | Creatinine, % ([1]; 16 Hrs): 0.4% | Salt, % ([1]; 16 Hrs): 99.6% | Creatinine, % ([1]; 24 Hrs): 0.5% | Salt, % ([1]; 24 Hrs): 99.5% | Creatinine, % ([1]; 32 Hrs): 0.5% and 0.4% | Salt, % ([1]; 32 Hrs): 99.5% and 99.6% | Creatinine, % ([1]; 40 Hrs): 0.5% | Salt, % ([1]; 40 Hrs): 99.5% | Creatinine, % ([1]; 48 Hrs): 0.5% | Salt, % ([1]; 48 Hrs): 99.5% | Creatinine, % ([1]; 56 Hrs): 0.5% | Salt, % ([1]; 56 Hrs): 99.5% | Creatinine, % ([1]; 64 Hrs): 0.5% | Salt, % ([1]; 64 Hrs): 99.5% | Creatinine, % ([1]; 72 Hrs): 0.5% | Salt, % ([1]; 72 Hrs): 99.5% | Creatinine, % ([1]; 138 Hrs): 0.6% | Salt, % ([1]; 138 Hrs): 99.4% | Creatinine, % ([1]; 166 Hrs): 0.7% | Salt, % ([1]; 166 Hrs): 99.3% | Creatinine, % ([1]; 190 Hrs): 0.7% | Salt, % ([1]; 190 Hrs): 99.3% | Creatinine, % ([1]; 214 Hrs): 0.8% and 0.7% | Salt, % ([1]; 214 Hrs): 99.2% and 99.3% | Creatinine, % ([1]; 240 Hrs): 0.8% | Salt, % ([1]; 240 Hrs): 99.2% | Creatinine, % ([1]; 287 Hrs): 0.9% | Salt, % ([1]; 287 Hrs): 99.1% | Creatinine, % ([1]; 310 Hrs): 0.9% | Salt, % ([1]; 310 Hrs): 99.1% | Creatinine, % ([1]; 333 Hrs): 1.0% | Salt, % ([1]; 333 Hrs): 99.0% | decomposition [1]: under 0.5% | Formation of creatinine [1]: ≤ 1%

Source: patent US11970435B2, “Taste-modified creatine salts, compounds, compositions and uses thereof” (Augusta University Research Institute, Inc., priority 2017, dated 2024)
